Data reported in patent US20170073306A1, “POTENT INHIBITORS OF HUMAN CARBONIC ANHYDRASE II AND BOVINE CARBONIC ANHYDRASE II AND THEIR MECHANISM OF ACTION” (priority 2015, published 2017).
Like-named read-outs stand apart in the source and are kept apart here.

Key:
MTT cytotoxicity assay = assay type: cell-based; settings: mouse, 3T3 mouse fibroblast cells, 3T3 cells, 50% growth inhibition, read-out: Cytotoxicity IC50 ± SD
Procedure: Cytotoxicity studies were performed using a colorimetric assay that measures the reduction of 3-(4,5-dimethythiazol-2-yl)-2,5-diphenyl tetrazolium bromide (MTT) (yellow in color), by mitochondrial enzyme (i.e. succinate dehydrogenase). The MTT enters into the mitochondria of cell, where it is reduced to an insoluble formazan salt (purple in color). The extent of MTT reduction to formazan within cells was measured spectrophotometrically. As reduction of MTT can only occur in metabolically active cells the level of activity is actually a measure of the viability of the cells^22.
Mouse fibroblast cell line 3T3 was cultured in DMEM, supplemented with 5% of FBS, 100 IU/ml of penicillin and 100 μg/ml of streptomycin, and kept at 37° C. in 5% CO2 incubator. For the preparation of cell culture 100 μL/well of cell solution (5×10^4 cells/ml) was added into 96-well plate. The plate was incubated for overnight, and fresh medium was added after the removal of old medium. The test compounds were also added in different concentrations into the plate and plate was again incubated for 48 hrs. After the completion of this incubation period 200 μL MTT (0.5 mg/ml) was added and plate was again incubated for 4 hrs, after this final incubation 100 μL of DMSO was added to each well. The level of MTT reduction to formazan was evaluated by change in absorbance at 540 nm using a micro plate reader (Spectra Max plus, Molecular Devices, CA, USA).

[1] = target: T1, Bovine Carbonic Anhydrase-II (bovine erythrocyte CA-II) (Bos taurus, UniProt P00921); assay: Bovine carbonic anhydrase-II inhibition, 4-nitrophenyl acetate spectrophotometric assay; assay type: biochemical
T1 construct: pure bovine erythrocyte CA-II; from tissue; host or cells: bovine erythrocytes
Procedure: (§1) Nineteen different analogues of benzamide sulfonamides were evaluated for carbonic anhydrase-II inhibition. The rate of catalyzed reaction was monitored by the amount of product formation by using the chromogenic substrate i.e., 4-nitrophenyl acetate.
4-Nitrophenyl acetate (4-NPA) is a colorless compound which is used as a substrate in carbonic anhydrase inhibition assay. The reaction involves the hydrolysis of 4-nitrophenyl acetate into […] and 4-nitrophenol a yellow colored compound. During this experiment, HEPES-tris buffer was used at 20 mM concentration with pH 7.4.
After 15 min of incubation of the enzyme with the test compound, the substrate was added to initiate the reaction. The reaction was carried out in triplicate with different concentrations of test compounds was used.
In this assay protocol, the reaction was performed by using a 96-well flat bottom plate.
The amount of product formation was measured at 400 nm for 30 min with 1 min interval, multiplate reader SPECTRA max 340 (Molecular Devices, CA, USA) was used to monitor the product formation.
The enzyme inhibitory activities were calculated using the following formula:
% Inhibition=100−(O.D of test/O.D of control)*100
(§2) Where test is the enzyme activity with sample and control is the enzyme activity without sample. The IC50 of the compounds were calculated by using EZ-Fit Enzyme Kinetic Program (Perrella Scientific Inc. Amhrest, U.S.A).

[2] = target: T2, Human Carbonic Anhydrase-II (human erythrocyte CA-II) (Homo sapiens, UniProt P00918); assay: HCA-II inhibitory activity, 4-nitrophenyl acetate spectrophotometric assay; assay type: biochemical; settings: 4-nitrophenyl acetate 0.7 mM, pH 7.4, 25° C., 15 min preincubation; read-out: IC50 ± S.E.M. HCA-II
T2 construct: purified human erythrocyte CA-II; from tissue; host or cells: human erythrocytes
Procedure: as §1
Hydrolysis of 4-NPA (a colorless compound): yields 4-nitrophenol and […]. The reaction is monitored by quantifying the formation of 4-nitrophenol, a yellow colored compound.
In successive experiments, HEPES-tris was used as a buffer for the reaction at final concentration of 20 mM, with 7.4 pH. The total reaction volume of 200 μL includes, 140 μL of the HEPES-tris, 20 μL of test compound diluted in DMSO (20 μL of DMSO as a control sample), 20 μL of purified human erythrocyte CA-II (0.1 mg/mL) prepared in deionized water and 20 μL of a solution of 4-NPA (0.7 mM diluted in ethanol). Adhesion of enzyme with the plastic-ware was avoided by the addition of bovine serum albumin (1 mg/mL).
The 20 μL of test compound was incubated with enzyme for a period of 15 min. The rate of product formation was monitored with the addition of 20 μL substrate prepared in ethanol at a final concentration of 0.7 mM 4-nitrophenyl acetate at 25° C. for a period of 30 min with regular interval of 1 min.
The assay was performed in triplicates by using 96-well flat bottom plate.
The enzyme inhibitory activities were calculated using the following formula: […]
as §2

[3] = target: T3, Bovine Carbonic Anhydrase-II (Bos taurus, UniProt P00921); assay: Kinetics studies (Lineweaver-Burk, Dixon plots) against Bovine Carbonic Anhydrase-II; assay type: biochemical; parameters: Vmax app: unit not given here; settings: for Type of Inhibition: Lineweaver-Burk / Dixon plots; for Vmax app: apparent Vmax with inhibitor (0.2-0.00625 μM); for Vmax: enzyme Vmax without inhibitor
T3 construct: pure bovine erythrocyte CA-II; from tissue; host or cells: bovine erythrocytes
Procedure: FIG. 2B depicts the double reciprocal plot for Ki determination which is between Slope Vs Inhibitor Conc.
FIG. 3B depicts the double reciprocal plot for Ki determination which is between Slope Vs Inhibitor Conc.
Kinetics studies were performed for each analogue. […] The Grafit version 7.0 was used for the construction of Lineveawer-Burk plots and their secondary replots.

[4] = 4-nitrophenyl acetate 0.7 mM, pH 7.4, 15 min preincubation, read-out: IC50 ± S.E.M. BCA-II
[5] = from secondary replots / Dixon plot, read-out: Ki

T1 sequence (P00921 whole entry): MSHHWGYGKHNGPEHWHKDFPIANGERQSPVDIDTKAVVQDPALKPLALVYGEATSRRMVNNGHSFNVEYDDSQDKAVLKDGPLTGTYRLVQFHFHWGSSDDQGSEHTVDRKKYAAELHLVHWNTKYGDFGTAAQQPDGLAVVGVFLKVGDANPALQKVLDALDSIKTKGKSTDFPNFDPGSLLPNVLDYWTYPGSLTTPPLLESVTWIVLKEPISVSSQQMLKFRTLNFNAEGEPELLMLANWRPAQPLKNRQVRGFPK
T3 sequence (P00921 whole entry): as above

SMILES | IC50 at 48 h (MTT cytotoxicity assay) | IC50 [1, 4] | IC50 [2] | Type of Inhibition [3] | Vmax app [3] | Vmax [3] | Ki [3, 5] | IC50 [1] | Ki [3]
NS(=O)(=O)c1ccc(NC(=S)NC(=O)c2ccc(F)cc2)cc1 [Compound 13, 4-Fluoro-N-(4-sulfamoylphenylcarbamothioyl)benzamide] | > 30000 nM | 130 ± 20 nM | 580 ± 1 nM | – | – | – | – | – | –
NS(=O)(=O)c1ccc(NC(=S)NC(=O)c2cccc([N+](=O)[O-])c2)cc1 [Compound 6, 3-Nitro-N-(4-sulfamoylphenylcarbamothioyl)benzamide] | > 30000 nM | 80 ± 4 nM | 190 ± 1 nM | Mixed type | 17.48 | 82.64 (μM/L/min)^−1 | 90 nM | – | –
NS(=O)(=O)c1ccc(NC(=S)NC(=O)c2ccc(Cl)cc2)cc1 [Compound 2, 4-Chloro-N-(4-sulfamoylphenylcarbamothioyl)benzamide] | > 30000 nM | 160 ± 2 nM | 210 ± 10 nM | Noncompetitive | 18.45 | 80 (μM/L/min)^−1 | 110 nM | – | –
NS(=O)(=O)c1ccc(NC(=S)NC(=O)C2CCCO2)cc1 (stereo not drawn) [Compound 17, N-(4-Sulfamoylphenylcarbamothioyl)tetrahydrofuran-2-carboxamide] | > 30000 nM | 120 ± 20 nM | 270 ± 60 nM | Mixed type | 26.88 | 111.11 (μM/L/min)^−1 | 59 nM | – | –
NS(=O)(=O)c1ccc(NC(=S)NC(=O)c2ccccc2[N+](=O)[O-])cc1 [Compound 7, 2-Nitro-N-(4-sulfamoylphenylcarbamothioyl)benzamide] | > 30000 nM | 60 ± 5 nM | 120 ± 2 nM | Mixed type | 19.30 | 71.42 (μM/L/min)^−1 | 140 nM | – | –
Cc1ccc(C(=O)NC(=S)Nc2ccc(S(N)(=O)=O)cc2)cc1 [Compound 3, 4-Methyl-N-(4-sulfamoylphenylcarbamothioyl)benzamide] | > 30000 nM | 80 ± 3 nM | 90 ± 30 nM | Mixed type | 52.63 | 80 (μM/L/min)^−1 | 58 nM | – | –
NS(=O)(=O)c1ccc(NC(=S)NC(=O)Cc2ccccc2)cc1 [Compound 8, 2-Phenyl-N-(4-sulfamoylphenylcarbamothioyl)acetamide] | > 30000 nM | 70 ± 3 nM | 160 ± 1 nM | Mixed type | 7.77 | 81.30 (μM/L/min)^−1 | 35 nM | – | –
NS(=O)(=O)c1ccc(NC(=S)NC(=O)c2ccccc2)cc1 [Compound 1, N-(4-Sulfamoylphenylcarbamothioyl)benzamide] | > 30000 nM | – | – | Noncompetitive | – | 99.00 (μM/L/min)^−1 | – | 90 ± 7 nM | 52 nM
COc1cccc(C(=O)NC(=S)Nc2ccc(S(N)(=O)=O)cc2)c1 [Compound 11, 3-Methoxy-N-(4-sulfamoylphenylcarbamothioyl)benzamide] | > 30000 nM | 90 ± 3 nM | 190 ± 5 nM | Noncompetitive | 35.21 | 88.49 (μM/L/min)^−1 | 280 nM | – | –
Cc1ccccc1C(=O)NC(=S)Nc1ccc(S(N)(=O)=O)cc1 [Compound 9, 2-Methyl-N-(4-sulfamoylphenylcarbamothioyl)benzamide] | > 30000 nM | 80 ± 2 nM | 180 ± 4 nM | Noncompetitive | 14.61 | 90.90 (μM/L/min)^−1 | 58 nM | – | –
NS(=O)(=O)c1ccc(NC(=S)NC(=O)c2ccc([N+](=O)[O-])cc2)cc1 [Compound 4, 4-Nitro-N-(4-sulfamoylphenylcarbamothioyl)benzamide] | > 30000 nM | 130 ± 2 nM | 240 ± 40 nM | Noncompetitive | 18.97 | 53.19 (μM/L/min)^−1 | 220 nM | – | –
NS(=O)(=O)c1ccc(NC(=S)NC(=O)c2cccc(Cl)c2)cc1 [Compound 5, 3-Chloro-N-(4-sulfamoylphenylcarbamothioyl)benzamide] | > 30000 nM | 140 ± 6 nM | 280 ± 60 nM | Noncompetitive | 25.83 | 76.33 (μM/L/min)^−1 | 250 nM | – | –
Cc1cccc(C(=O)NC(=S)Nc2ccc(S(N)(=O)=O)cc2)c1 [Compound 10, 3-Methyl-N-(4-sulfamoylphenylcarbamothioyl)benzamide] | > 30000 nM | 90 ± 2 nM | 190 nM | Noncompetitive | 10.61 | 62.5 (μM/L/min)^−1 | 67 nM | – | –
COc1cc(OC)cc(C(=O)NC(=S)Nc2ccc(S(N)(=O)=O)cc2)c1 [Compound 16, 3,5-Dimethoxy-N-(4-sulfamoylphenylcarbamothioyl)benzamide] | > 30000 nM | 110 ± 5 nM | 230 ± 30 nM | Noncompetitive | 37.31 | 72.46 (μM/L/min)^−1 | 400 nM | – | –
NS(=O)(=O)c1ccc(NC(=S)NC(=O)c2ccc(Cl)cc2Cl)cc1 [Compound 19, 2,4-Dichloro-N-(4-sulfamoylphenylcarbamothioyl)benzamide] | > 30000 nM | 60 ± 1 nM | 100 ± 40 nM | – | 12.33 | 79.36 (μM/L/min)^−1 | 46 nM | – | –
COc1cc(C(=O)NC(=S)Nc2ccc(S(N)(=O)=O)cc2)cc(OC)c1OC [Compound 14, 3,4,5-Trimethoxy-N-(4-sulfamoylphenylcarbamothioyl)benzamide] | > 30000 nM | 60 nM | 170 ± 2 nM | – | – | – | – | – | –
NS(=O)(=O)c1ccc(NC(=S)NC(=O)c2ccc([N+](=O)[O-])cc2Cl)cc1 [Compound 15, 2-Chloro-4-nitro-N-(4-sulfamoylphenylcarbamothioyl)benzamide] | > 30000 nM | 60 ± 1 nM | 160 ± 10 nM | – | – | – | – | – | –
NS(=O)(=O)c1ccc(NC(=S)NC(=O)c2ccc(Cl)cc2[N+](=O)[O-])cc1 [Compound 12, 4-Chloro-2-nitro-N-(4-sulfamoylphenylcarbamothioyl)benzamide] | > 30000 nM | 280 ± 7 nM | 460 ± 30 nM | Mixed type | 34.12 | 108.69 (μM/L/min)^−1 | 24 nM | – | –
